Measurements: patent US9926581B2, “Fagopyritol synthase genes and uses thereof” (Cornell Research Foundation, Inc., priority 2002, dated 2018)
“Also recorded” adds a separate entry of the source.

Legend:
Settings in all cases: for activity as galactosyl acceptor: UDP-Gal as galactosyl donor, 20 mM substrates, 5 mM MnCl2, 30° C.
GmGolS = experiment: Galactinol synthase / fagopyritol synthase enzyme assay with recombinant GmGolS; type: biochemical, Glycine max
Procedure: (§1) Both the crude soluble protein extracts from E. coli and the purified GolS recombinant proteins were used in enzyme assays. […] In galactinol synthase assays, UDP-Gal was substituted with 20 mM galactinol as the galactosyl donor. Assays were run at 30° C. for 30 to 300 minutes. Reactions were stopped by addition of 50 μL of 100% ethanol.
Both crude soluble protein extracts from E. coli containing the recombinant GmGolS protein and purified recombinant GmGolS protein were used in enzyme assays. […] Assays were run at 30° C. for 30 to 300 minutes. Reactions were stopped by addition of 50 μL of 100% ethanol.
(§2) The reactions were stopped after 3 hours with the addition of 50 μL of 100% EtOH.
(§3) To determine the concentration of Mn^2+ in which the enzymes had the greatest activity, multiple assays were completed varying the amount of Mn^2+. […] After 3 hours, the reactions were stopped with the addition of 50 μL of 100% EtOH.
(§4) The reactions were completed using 1-2 μg of enzyme in a 50 μL solution containing 20 mM galactosyl acceptor, 20 mM UDP-galactose, 50 mM HEPES, pH 7.0, 2 mM DTT, 5 mM Mn^2+ at 30° C. After 3 hours, the reactions were stopped with the addition of 50 of 100% EtOH.
(§5) All samples from the assays were analyzed by gas chromatography. All were prepared for analysis in the same way. […] The solution was then filtered using NanoSep tubes and 100 μL was transferred to a silation vial. The samples were then dried under nitrogen and desiccated over P2O5 overnight. The dried samples were then derivitized with 100 μL of TMSI:pyridine (1:1, v/v) and then analyzed by gas chromatography.

FeGolS-1 = experiment: Fagopyritol synthase / galactinol synthase enzyme assay with recombinant FeGolS-1 (products by gas chromatography); type: biochemical, Fagopyrum esculentum
Procedure: Both the crude soluble protein extracts from E. coli and the purified GolS recombinant proteins were used in enzyme assays. […] In galactinol synthase assays, UDP-Gal was substituted with 20 mM galactinol as the galactosyl donor. Assays were run at 30° C. for 30 to 300 minutes. Reactions were stopped by addition of 50 μL of 100% ethanol. […] The reactions were stopped after 3 hours with the addition of 50 μL of 100% EtOH. […] To determine the concentration of Mn^2+ in which the enzymes had the greatest activity, multiple assays were completed varying the amount of Mn^2+. […] After 3 hours, the reactions were stopped with the addition of 50 μL of 100% EtOH. […] After 3 hours, the reactions were stopped with the addition of 50 of 100% EtOH. All samples from the assays were analyzed by gas chromatography. All were prepared for analysis in the same way. […] The solution was then filtered using NanoSep tubes and 100 μL was transferred to a silation vial. The samples were then dried under nitrogen and desiccated over P2O5 overnight. The dried samples were then derivitized with 100 μL of TMSI:pyridine (1:1, v/v) and then analyzed by gas chromatography.

FeGolS-2 = FeGolS-2 (Fagopyrum esculentum, UniProt Q7XZ07); experiment: Fagopyritol synthase / galactinol synthase enzyme assay with recombinant FeGolS-2 (products by gas chromatography); type: biochemical
Procedure: as §1, §2, §3, §4, §5

[1] = 20 mM galactosyl donor instead of UDP-Gal

FeGolS-2, sequence (Q7XZ07 entry or part of it): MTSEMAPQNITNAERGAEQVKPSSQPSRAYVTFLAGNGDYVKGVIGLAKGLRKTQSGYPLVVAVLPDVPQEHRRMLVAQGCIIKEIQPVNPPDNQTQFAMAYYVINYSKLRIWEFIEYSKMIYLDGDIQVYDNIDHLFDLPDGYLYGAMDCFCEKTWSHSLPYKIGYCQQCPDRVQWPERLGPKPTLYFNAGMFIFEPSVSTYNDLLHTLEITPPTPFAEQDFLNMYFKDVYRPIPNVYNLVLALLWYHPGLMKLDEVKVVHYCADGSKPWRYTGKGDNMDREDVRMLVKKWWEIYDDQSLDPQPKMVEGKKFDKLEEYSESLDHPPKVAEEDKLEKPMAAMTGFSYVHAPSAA

Structure (SMILES)	activity as galactosyl acceptor (GmGolS)	activity as galactosyl acceptor (FeGolS-1)	further results
COC1[C@@H](O)[C@@H](O)C(O)[C@H](O)[C@H]1O (stereo partly drawn) [D-ononitol, 1D-4-O-methyl-myo-inositol]	not active	–	–
OC1C(O)C(O)C(O)C(O)C1O [L-chiro-inositol]	active; also recorded: can be used as galactosyl acceptors	can be used as galactosyl acceptors	–
O[C@H]1[C@H](O)[C@@H](O)[C@H](O)[C@@H](O)[C@H]1O [myo-Inositol, myo-inositol]	catalyzed the biosynthesis of galactinol; also recorded: can be used as galactosyl acceptors	catalyzed the biosynthesis of galactinol; also recorded: can be used as galactosyl acceptors	activity as galactosyl acceptor (FeGolS-2): catalyzed the biosynthesis of galactinol; also recorded: can be used as galactosyl acceptors
OC1C(O)C(O)C(O)C(O)C1O [D-chiro-Inositol, D-chiro-inositol]	–	can be used as galactosyl acceptors	activity as galactosyl acceptor (GmGolS; listed as D-chiro-inositol): catalyzed the biosynthesis of fagopyritol B1, but not fagopyritol A1; also recorded: catalyzed the biosynthesis of fagopyritol B1; also recorded: can be used as galactosyl acceptors; activity as galactosyl acceptor (FeGolS-1; listed as D-chiro-inositol): catalyzed the biosynthesis of fagopyritol B1
O[C@H]1[C@H](O)[C@@H](O)[C@H](O)[C@@H](O)[C@@H]1O [scyllo-inositol]	reduced activity; also recorded: can be used as galactosyl acceptors	can be used as galactosyl acceptors	activity as galactosyl acceptor (FeGolS-2): can be used as galactosyl acceptors
OC1C(O)C(O)C(O)C(O)C1O (stereo not drawn) [epi-inositol]	no activity	–	–
OC[C@H]1O[C@H](OC2[C@@H](O)[C@H](O)C(O)[C@H](O)[C@@H]2O)[C@H](O)[C@@H](O)[C@H]1O (some centres unmarked) [Galactinol, galactinol]	–	–	activity as galactosyl donor (FeGolS-2; [1]): Neither FeGolS-1 nor FeGolS-2 was active; activity as galactosyl donor (GmGolS; galactosyl donor instead of UDP-Gal): not active; activity as galactosyl donor (FeGolS-1; [1]): Neither FeGolS-1 nor FeGolS-2 was active

The next lines start with results.

activity as galactosyl acceptor (GmGolS)	activity as galactosyl acceptor (FeGolS-1)	Structure (SMILES)	further results
not active	–	COC1[C@@H](O)[C@H](O)C(O)[C@H](O)[C@H]1O (some centres unmarked) [sequoyitol, 5-O-methyl-myo-inositol]	–
not active	–	CO[C@H]1[C@H](O)[C@@H](O)[C@@H](O)[C@H](O)[C@@H]1O [D-Pinitol, 1D-3-O-methyl-chiro-inositol]	–
not active	–	CO[C@H]1[C@H](O)[C@@H](O)[C@H](O)[C@H](O)[C@H]1O [L-quebrachitol, 1L-2-O-methyl-chiro-inositol]	–
reduced activity	can be used as galactosyl acceptors	COC1[C@H](O)[C@H](O)C(O)[C@H](O)[C@H]1O (stereo partly drawn) [D-bornesitol, 1D-1-O-methyl-myo-inositol]	activity as galactosyl acceptor (FeGolS-2): can be used as galactosyl acceptors; activity as galactosyl acceptor (GmGolS; listed as bornesitol): can be used as galactosyl acceptors
